Results reported in US9878036B2, “Immunomodulatory compositions comprising a polymer matrix and an oil phase” (Sigmoid Pharma Limited, priority 2009, dated 2018).

Tested on: BALB/c mice
Settings: mouse, in vivo, po

Substance: ovalbumin alone in solution: model antigen ovalbumin (200 μg/mouse) in bicarbonate buffer, oral comparator
- OVA-specific IgG antibodies in sera: variable IgG antibody responses
